Read-outs that look alike come from different tables or passages of the source. Positions of bridges follow the written chain, without caps; N, C: chain ends. Residues, ends and D or L forms follow the SMILES beside them.
What was measured:
[1] = biological target: T1, WT RBD (Severe acute respiratory syndrome coronavirus 2, UniProt P0DTC2); assay: biochemical; format: binding, SARS-CoV-2
[2] = biological target: T1, WT RBD; assay: biochemical; format: binding, SARS-CoV-2; remark: listed apart in the source
[3] = covalently immobilized onto CM5 via amine groups

Row | SMILES | Kd [1] | koff [1] | kon [1] | Kd [2] | stability on CM5 chip [3]
1 | CC[C@H](C)[C@@H]1NC(=O)CNC(=O)[C@H](CCCCN)NC(=O)[C@@H]2CSSC[C@@H](C(=O)N[C@@H](Cc3ccc(O)cc3)C(=O)O)NC(=O)[C@H](CCCCN)NC(=O)[C@@H]3CSSC[C@H](NC(=O)[C@H](CCCNC(=N)N)NC(=O)[C@H](CO)NC(=O)[C@H](CC(=O)O)NC(=O)[C@H](CC(N)=O)NC(=O)CNC(=O)CNC(=O)[C@H](Cc4ccccc4)NC(=O)[C@H]([C@@H](C)CC)NC(=O)[C@H]([C@@H](C)O)NC(=O)[C@@H](NC(=O)CNC(=O)[C@H](Cc4c[nH]c5ccccc45)NC(=O)CN)CSSC[C@H](NC(=O)[C@H](Cc4ccc(O)cc4)NC(=O)CNC(=O)CNC(=O)[C@H](CCCNC(=N)N)NC(=O)[C@H](Cc4ccc(O)cc4)NC(=O)CNC(=O)[C@H](CCCNC(=N)N)NC1=O)C(=O)N[C@@H](CCCCN)C(=O)N[C@@H](CC(C)C)C(=O)NCC(=O)NCC(=O)N[C@@H]([C@@H](C)CC)C(=O)N3)C(=O)N[C@@H](Cc1c[nH]cn1)C(=O)N[C@@H](CCCNC(=N)N)C(=O)N[C@@H](Cc1c[nH]cn1)C(=O)N2 [Emorisin] (H-GWGCTIFGGNDSRCHRHCKGIRGYRGGYCKLGGICKCY-OH; disulfide 4-29, 14-35, 18-37) | 0.0076 µM | 0.045 s⁻¹ | 5.92e+06 M⁻¹ s⁻¹ |  | 
2 | CC[C@H](C)[C@@H]1NC(=O)[C@H](CCCCN)NC(=O)CNC(=O)[C@H](CCCNC(=N)N)NC(=O)[C@@H]2CSSC[C@H](N)C(=O)N3CCC[C@H]3C(=O)N[C@@H](Cc3c[nH]c4ccccc34)C(=O)N[C@@H](CC(N)=O)C(=O)N[C@@H](C)C(=O)N[C@@H](Cc3ccc(O)cc3)C(=O)N[C@@H](CCC(=O)O)C(=O)N[C@H]3CSSC[C@H](NC(=O)[C@H]([C@@H](C)O)NC(=O)[C@H](CCC(N)=O)NC(=O)[C@H](CCCNC(=N)N)NC1=O)C(=O)N[C@@H](Cc1c[nH]cn1)C(=O)N[C@H](C(=O)N[C@@H](Cc1ccc(O)cc1)C(=O)O)CSSC[C@H](NC(=O)[C@H](Cc1c[nH]cn1)NC(=O)[C@H](CCCNC(=N)N)NC(=O)[C@H](CC(=O)O)NC3=O)C(=O)N[C@@H](C(C)C)C(=O)N[C@@H](CO)C(=O)N[C@@H](CCCCN)C(=O)NCC(=O)N[C@@H](Cc1ccc(O)cc1)C(=O)N[C@@H]([C@@H](C)O)C(=O)NCC(=O)NCC(=O)N[C@@H](CC(N)=O)C(=O)N2 [(ΔGFG)AMSIN] (H-CPWNAYECDRHCVSKGYTGGNCRGKIRQTCHCY-OH; disulfide 1-22, 8-30, 12-32) |  |  |  | 0.119 µM | 
3 | CC[C@H](C)[C@@H]1NC(=O)[C@H](CCCCN)NC(=O)CNC(=O)[C@H](CCCNC(=N)N)NC(=O)[C@@H]2CSSC[C@H](NC(=O)CNC(=O)[C@H](Cc3ccccc3)NC(=O)CN)C(=O)N3CCC[C@H]3C(=O)N[C@@H](Cc3c[nH]c4ccccc34)C(=O)N[C@@H](CC(N)=O)C(=O)N[C@@H](C)C(=O)N[C@@H](Cc3ccc(O)cc3)C(=O)N[C@@H](CCC(=O)O)C(=O)N[C@H]3CSSC[C@H](NC(=O)[C@H]([C@@H](C)O)NC(=O)[C@H](CCC(N)=O)NC(=O)[C@H](CCCNC(=N)N)NC1=O)C(=O)N[C@@H](Cc1c[nH]cn1)C(=O)N[C@H](C(=O)N[C@@H](Cc1ccc(O)cc1)C(=O)O)CSSC[C@H](NC(=O)[C@H](Cc1c[nH]cn1)NC(=O)[C@H](CCCNC(=N)N)NC(=O)[C@H](CC(=O)O)NC3=O)C(=O)N[C@@H](C(C)C)C(=O)N[C@@H](CO)C(=O)N[C@@H](CCCCN)C(=O)NCC(=O)N[C@@H](Cc1ccc(O)cc1)C(=O)N[C@@H]([C@@H](C)O)C(=O)NCC(=O)NCC(=O)N[C@@H](CC(N)=O)C(=O)N2 [AMSIN] (H-GFGCPWNAYECDRHCVSKGYTGGNCRGKIRQTCHCY-OH; disulfide 4-25, 11-33, 15-35) | 0.193 µM | 0.00219 s⁻¹ | 11300 M⁻¹ s⁻¹ |  | rather stable

— paper PMC10315472 (Frontiers in Microbiology, 2023)
